The values that follow are results of earlier work, collected in patent US8173570B2, “Hydroconversion processes employing multi-metallic catalysts and method for making thereof” (Chevron U.S.A. Inc., priority 2007, dated 2012).

This data set concerns rats. The note with it: acute toxicity, as single oral dose to rats (definition b56-b57).

Turning to `O=CC(=O)O` [glyoxylic], the LD50 is 3000 mg/kg.

One may read the LD50 as the dose expected to kill half of the subjects tested.
